{"source": "paper PMC8617681", "about": "(Pharmaceuticals, 2021)", "molecular_target": "T1, human OATP1B1 (Homo sapiens, UniProt Q9Y6L6)", "T1 construct": "Werner Siegmund and Dr. Markus Keiser (University of Greifswald); host or cells: HEK293", "T1 sequence (Q9Y6L6 1-691)": "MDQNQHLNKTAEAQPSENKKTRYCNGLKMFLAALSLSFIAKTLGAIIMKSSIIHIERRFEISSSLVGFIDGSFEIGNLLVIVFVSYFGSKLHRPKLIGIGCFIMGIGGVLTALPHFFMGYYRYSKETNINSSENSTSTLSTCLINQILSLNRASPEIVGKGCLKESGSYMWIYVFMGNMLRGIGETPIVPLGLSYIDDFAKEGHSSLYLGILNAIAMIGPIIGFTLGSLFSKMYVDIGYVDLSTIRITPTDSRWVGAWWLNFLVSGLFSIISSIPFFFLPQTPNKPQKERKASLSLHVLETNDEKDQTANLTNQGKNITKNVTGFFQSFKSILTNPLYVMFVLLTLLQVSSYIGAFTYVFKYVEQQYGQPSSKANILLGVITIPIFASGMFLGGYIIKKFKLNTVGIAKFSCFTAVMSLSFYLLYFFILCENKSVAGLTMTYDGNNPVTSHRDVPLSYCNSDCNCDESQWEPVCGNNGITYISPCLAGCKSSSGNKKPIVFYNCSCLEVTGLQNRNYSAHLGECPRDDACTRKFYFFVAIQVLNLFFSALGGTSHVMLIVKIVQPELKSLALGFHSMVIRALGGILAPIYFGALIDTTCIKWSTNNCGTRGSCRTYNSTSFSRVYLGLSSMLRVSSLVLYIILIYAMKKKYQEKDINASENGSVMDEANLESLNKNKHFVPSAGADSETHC", "assay": "Cellular uptake in OATP1B1-overexpressing HEK293 cells", "format": "in vitro ADME", "settings": "5 µM, 2.5 min incubation, HEK293 OATP1B1", "method": "HEK293 cells, vector-transfected or human (h)SLCO1A2, hSLCO1B1 or hSLCO1B3 cDNA-transfected were kind gifts from Prof. Werner Siegmund and Dr. Markus Keiser (University of Greifswald, Greifswald, Germany). All the HEK293 cell lines were maintained in DMEM supplemented with 10% (v/v) FBS, 1% penicillin–streptomycin mix at 37 °C in 5% (v/v) CO2 and 500 μg/mL G418. Cells were first seeded in 12-well plates [coated with 50 mg/L poly (l-lysine) and 50 mg/L poly (l-ornithine)] at a density of 1.0 × 10^5 cells/well. For the uptake study, in order to induce the expression of OATP transporters, the cell culture medium was replaced with culture medium supplemented with 5 mM sodium butyrate 24 h before performing the uptake assay.\nThe uptake transport study was performed as described previously. […] The Krebs–Henseleit solution was prepared from Krebs–Henseleit-buffer modified powder and supplemented with 25 mM NaHCO3 and 2.5 mM CaCl2 adjusted to pH 6.4 with 1 M HCL. At 2.5 min, the incubation buffer was removed, and uptake was terminated by adding 1 mL of ice-cold Krebs–Henseleit buffer, followed by two times washing with 1 mL of ice-cold Krebs–Henseleit buffer. […] The cellular protein amount was determined by the Bradford method using 10 μL of the cell lysates with bovine serum albumin as a standard.", "data": [{"smiles": "COc1ccc(CN2C3CC2CN(c2ccc(-c4cc(OCC(C)(C)O)cn5ncc(C#N)c45)cn2)C3)cn1", "note": "[selpercatinib]", "values": [{"measurement": "uptake compared to vector control cells", "result": "did not observe any significant increase in the uptake"}]}]}
